In patent US12209102B2, “Heterocyclic compounds and uses thereof” (Kumquat Biosciences Inc., priority 2022, dated 2025):

Assays:
[1] = molecular target: T1, K-Ras G12V (Homo sapiens, UniProt P01116, G12V); assay: HTRF resonance energy transfer assay, K-Ras G12V / SOS1 interaction; format: biochemical; conditions: HTRF assay of Example 5; read-out: IC50 against K-Ras G12V
T1 construct: made in house; host or cells: E. coli BL21 (DE3)
In short: (§1)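 Read-out: HTRF 665/620 nm ratio (excitation 337 nm) after roughly 10 min or longer incubation, used to derive IC50. Donor anti-GST-Eu on GST-K-Ras; acceptor anti-6His-XL665 on His-hSOS1. Duplicate dose series from 10 μM down to 0.01 μM.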

[2] = molecular target: T2, K-Ras G12D (Homo sapiens, UniProt P01116, G12D); assay: HTRF resonance energy transfer assay, K-Ras G12D / SOS1 interaction; format: biochemical; conditions: HTRF assay of Example 5; read-out: IC50 against K-Ras G12D
T2 construct: made in house; host or cells: E. coli BL21 (DE3)
T2 sequence (P01116 1-188 isoform P01116-2 G12D): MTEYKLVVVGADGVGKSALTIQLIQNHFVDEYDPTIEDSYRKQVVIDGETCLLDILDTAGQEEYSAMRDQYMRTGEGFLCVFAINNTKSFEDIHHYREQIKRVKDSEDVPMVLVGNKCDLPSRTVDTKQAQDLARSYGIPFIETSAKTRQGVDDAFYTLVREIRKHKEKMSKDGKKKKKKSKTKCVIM
In short: as §1

[3] = molecular target: T3, K-Ras G12S (Homo sapiens, UniProt P01116, G12S); assay: HTRF resonance energy transfer assay, K-Ras G12S / SOS1 interaction; format: biochemical; conditions: HTRF assay of Example 5; read-out: IC50 against K-Ras G12S
T3 construct: made in house; host or cells: E. coli BL21 (DE3)
T3 sequence (P01116 1-188 isoform P01116-2 G12S): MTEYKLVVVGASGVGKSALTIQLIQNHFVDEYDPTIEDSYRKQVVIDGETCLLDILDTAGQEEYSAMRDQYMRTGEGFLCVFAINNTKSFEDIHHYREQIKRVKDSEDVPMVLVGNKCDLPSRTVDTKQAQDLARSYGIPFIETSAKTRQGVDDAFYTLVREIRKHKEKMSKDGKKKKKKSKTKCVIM
In short: as §1

[4] = molecular target: T4, K-Ras WT (Homo sapiens, UniProt P01116); assay: HTRF resonance energy transfer assay, K-Ras WT / SOS1 interaction; format: biochemical; conditions: HTRF assay of Example 5; read-out: IC50 against K-Ras WT
T4 construct: made in house; host or cells: E. coli BL21 (DE3)
T4 sequence (P01116 1-188 isoform P01116-2): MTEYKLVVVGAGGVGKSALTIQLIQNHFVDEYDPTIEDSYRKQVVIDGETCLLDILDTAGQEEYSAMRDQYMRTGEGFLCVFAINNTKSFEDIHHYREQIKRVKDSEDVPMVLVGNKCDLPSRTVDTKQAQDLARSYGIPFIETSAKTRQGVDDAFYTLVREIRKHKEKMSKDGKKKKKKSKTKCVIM
In short: as §1

[5] = test system: SW620 cells; assay: Ras cellular assay, growth of cells with K-Ras G12V mutation (CellTiter-Glo); format: cell-based; conditions: Homo sapiens, SW-620; cell growth, Example 9, G12V mutation; read-out: IC50 against SW620 cells
In short: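 SW620 (K-Ras G12V) cells, e.g. 800/well in RPMI-1640 with 10% heat-inactivated FBS on standard or ultra-low attachment plates, were dosed the day after plating with e.g. a 10-point 3-fold series. Viability by CellTiter-Glo luminescence about 6 days later; IC50 from four-parameter fit.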

[6] = test system: A549 cells; assay: Ras cellular assay, growth of cells with K-Ras G12S mutation (CellTiter-Glo); format: cell-based; conditions: Homo sapiens, cell growth, Example 9, G12S mutation, read-out: IC50 against A549 cells
In short: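 A549 cells (K-Ras G12S) in RPMI-1640 with 10% heat-inactivated FBS, seeded e.g. 800 per well in standard or ultra-low-attachment 384-well plates, treated next day with a dilution series (e.g. 10-point, 3-fold). Viability by CellTiter-Glo luminescence about 6 days later; IC50 from four-parameter fit.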

T1 sequence (P01116 1-188 isoform P01116-2 G12V): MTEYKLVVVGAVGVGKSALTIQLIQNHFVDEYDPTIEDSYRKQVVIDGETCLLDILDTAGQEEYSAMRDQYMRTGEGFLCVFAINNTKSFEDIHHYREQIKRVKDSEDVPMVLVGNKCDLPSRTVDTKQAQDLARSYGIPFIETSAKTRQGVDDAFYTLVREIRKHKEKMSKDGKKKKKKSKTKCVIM

Compound	IC50 [1] [µM]	IC50 [2] [µM]	IC50 [3] [µM]	IC50 [4] [µM]	IC50 [5] [µM]	IC50 [6] [µM]
C[C@H](Oc1nc2c3c(c(Cl)c(-c4ccc(F)c5sc(N)c(C#N)c45)c(F)c3n1)OCCN2C1CCN(C(=O)C2CC2C#N)CC1)[C@@H]1CCCN1C (stereo partly drawn) [Compound 839, 2-amino-4-(8-chloro-4-(1-(trans-2-cyanocyclopropane-1-carbonyl)piperidin-4-yl)-10-fluoro-2-((S)-1-((S)-1-methylpyrrolidin-2-yl)ethoxy)-5,6-dihydro-4H-[1,4]oxazepino[5,6,7-de]quinazolin-9-yl)-7-fluorobenzo[b]thiophene-3-carbonitrile]	< 0.1	< 0.1	< 0.1	< 0.1	< 5	< 5
CNC(=O)C1CCC(N2CCOc3c(Cl)c(-c4ccc(F)c5sc(N)c(C#N)c45)c(F)c4nc(OC[C@@]56CCCN5C[C@H](F)C6)nc2c34)CC1 (stereo partly drawn) [Compound 1120, 4-(9-(2-amino-3-cyano-7-fluorobenzo[b]thiophen-4-yl)-8-chloro-10-fluoro-2-(((2R,7aS)-2-fluorotetrahydro-1H-pyrrolizin-7a(5H)-yl)methoxy)-5,6-dihydro-4H-[1,4]oxazepino[5,6,7-de]quinazolin-4-yl)-N-methylcyclohexane-1-carboxamide]	< 0.1	< 0.1	< 0.1	< 0.1	< 5	< 5
COC1CN(C(=O)N2CCC(N3C[C@H](C)Oc4c(Cl)c(-c5ccc(F)c6sc(N)c(C#N)c56)c(F)c5nc(OC[C@@]67CCCN6C[C@H](F)C7)nc3c45)CC2)C1 [Compound 935, 2-amino-4-((6S)-8-chloro-10-fluoro-2-(((2R,7aS)-2-fluorotetrahydro-1H-pyrrolizin-7a(5H)-yl)methoxy)-4-(1-(3-methoxyazetidine-1-carbonyl)piperidin-4-yl)-6-methyl-5,6-dihydro-4H-[1,4]oxazepino[5,6,7-de]quinazolin-9-yl)-7-fluorobenzo[b]thiophene-3-carbonitrile]	< 0.1	< 0.1	< 0.1	< 0.1	< 5	< 5
CNC(=O)C1CC(N2CCOc3c(Cl)c(-c4ccc(F)c5sc(N)c(C#N)c45)c(F)c4nc(OC[C@@]56CCCN5C[C@H](F)C6)nc2c34)CCO1 (stereo partly drawn) [Compound 1094, 4-(9-(2-amino-3-cyano-7-fluorobenzo[b]thiophen-4-yl)-8-chloro-10-fluoro-2-(((2R,7aS)-2-fluorotetrahydro-1H-pyrrolizin-7a(5H)-yl)methoxy)-5,6-dihydro-4H-[1,4]oxazepino[5,6,7-de]quinazolin-4-yl)-N-methyltetrahydro-2H-pyran-2-carboxamide]	< 0.1	< 0.1	< 0.1	< 0.1	< 5	< 5
N#Cc1c(N)sc2c(F)ccc(-c3c(Cl)c4c5c(nc(OC[C@@]67CCCN6C[C@H](F)C7)nc5c3F)N(CC3(C#N)CCC3)CCO4)c12 [Compound 963, 2-amino-4-(8-chloro-4-((1-cyanocyclobutyl)methyl)-10-fluoro-2-(((2R,7aS)-2-fluorotetrahydro-1H-pyrrolizin-7a(5H)-yl)methoxy)-5,6-dihydro-4H-[1,4]oxazepino[5,6,7-de]quinazolin-9-yl)-7-fluorobenzo[b]thiophene-3-carbonitrile]	< 0.1	< 0.1	< 0.1	< 0.1	< 5	< 5

Second part, the compound after the results:

IC50 [1] [µM]	IC50 [2] [µM]	IC50 [3] [µM]	IC50 [4] [µM]	IC50 [5] [µM]	IC50 [6] [µM]	Compound
< 0.1	< 0.1	< 0.1	< 0.1	< 5	< 5	CNC(=O)C1CC(N2CCOc3c(Cl)c(-c4ccc(F)c5sc(N)c(C#N)c45)c(F)c4nc(OC[C@@]56CCCN5C[C@H](F)C6)nc2c34)C1 (stereo partly drawn) [Compound 859, 3-(9-(2-amino-3-cyano-7-fluorobenzo[b]thiophen-4-yl)-8-chloro-10-fluoro-2-(((2R,7aS)-2-fluorotetrahydro-1H-pyrrolizin-7a(5H)-yl)methoxy)-5,6-dihydro-4H-[1,4]oxazepino[5,6,7-de]quinazolin-4-yl)-N-methylcyclobutane-1-carboxamide]
< 0.1	< 0.1	< 0.1	< 0.1	< 5	< 5	N#Cc1c(N)sc2c(F)ccc(-c3c(Cl)c4c5c(nc(OC[C@@]67CCCN6C[C@H](F)C7)nc5c3F)N(C3CC(C#N)C3)CCO4)c12 (stereo partly drawn) [Compound 1043, 2-amino-4-(8-chloro-4-(3-cyanocyclobutyl)-10-fluoro-2-(((2R,7aS)-2-fluorotetrahydro-1H-pyrrolizin-7a(5H)-yl)methoxy)-5,6-dihydro-4H-[1,4]oxazepino[5,6,7-de]quinazolin-9-yl)-7-fluorobenzo[b]thiophene-3-carbonitrile]
< 0.1	< 0.1	< 0.1	< 0.1	< 5	< 5	C#Cc1c(F)ccc2cc(O)cc(-c3nc4c5c(nc(OC[C@@]67CCCN6C[C@H](F)C7)nc5c3F)N(c3ccccc3)CCO4)c12 [Compound 948, 5-ethynyl-6-fluoro-4-(4-fluoro-2-(((2R,7aS)-2-fluorotetrahydro-1H-pyrrolizin-7a(5H)-yl)methoxy)-10-phenyl-9,10-dihydro-8H-7-oxa-1,3,6,10-tetraazacyclohepta[de]naphthalen-5-yl)naphthalen-2-ol]
< 0.1	< 0.1	< 0.1	< 0.1	< 5	< 5	N#CCCCN1CCOc2c(Cl)c(-c3ccc(F)c4sc(N)c(C#N)c34)c(F)c3nc(OC[C@@]45CCCN4C[C@H](F)C5)nc1c23 [Compound 837, 2-amino-4-(8-chloro-4-(3-cyanopropyl)-10-fluoro-2-(((2R,7aS)-2-fluorotetrahydro-1H-pyrrolizin-7a(5H)-yl)methoxy)-5,6-dihydro-4H-[1,4]oxazepino[5,6,7-de]quinazolin-9-yl)-7-fluorobenzo[b]thiophene-3-carbonitrile]
< 0.1	< 0.1	< 0.1	< 0.1	< 5	< 5	CN(CCN1CCOc2c(Cl)c(-c3ccc(F)c4sc(N)c(C#N)c34)c(F)c3nc(OC[C@@]45CCCN4C[C@H](F)C5)nc1c23)C(=O)C1COC1 [Compound 1058, N-(2-(9-(2-amino-3-cyano-7-fluorobenzo[b]thiophen-4-yl)-8-chloro-10-fluoro-2-(((2R,7aS)-2-fluorotetrahydro-1H-pyrrolizin-7a(5H)-yl)methoxy)-5,6-dihydro-4H-[1,4]oxazepino[5,6,7-de]quinazolin-4-yl)ethyl)-N-methyloxetane-3-carboxamide]
< 0.1	< 0.1	< 0.1	< 0.1	< 5	< 5	CC(COC(F)F)N1CCOc2c(Cl)c(-c3ccc(F)c4sc(N)c(C#N)c34)c(F)c3nc(OC[C@@]45CCCN4C[C@H](F)C5)nc1c23 (stereo partly drawn) [Compound 973, 2-amino-4-(8-chloro-4-(1-(difluoromethoxy)propan-2-yl)-10-fluoro-2-(((2R,7aS)-2-fluorotetrahydro-1H-pyrrolizin-7a(5H)-yl)methoxy)-5,6-dihydro-4H-[1,4]oxazepino[5,6,7-de]quinazolin-9-yl)-7-fluorobenzo[b]thiophene-3-carbonitrile]
< 0.1	< 0.1	< 0.1	< 0.1	< 5	< 5	N#Cc1c(N)sc2c(F)ccc(-c3c(Cl)c4c5c(nc(OC[C@@]67CCCN6C[C@H](F)C7)nc5c3F)N(C3CC(N)C3)CCO4)c12 (stereo partly drawn) [Compound 734, 2-amino-4-(4-(3-aminocyclobutyl)-8-chloro-10-fluoro-2-(((2R,7aS)-2-fluorotetrahydro-1H-pyrrolizin-7a(5H)-yl)methoxy)-5,6-dihydro-4H-[1,4]oxazepino[5,6,7-de]quinazolin-9-yl)-7-fluorobenzo[b]thiophene-3-carbonitrile]
< 0.1	< 0.1	< 0.1	< 0.1	< 5	< 5	N#Cc1c(N)sc2c(F)ccc(-c3c(Cl)c4c5c(nc(OC[C@@]67CCCN6C[C@H](F)C7)nc5c3F)N(C3CC35CNC5)CCO4)c12 (stereo partly drawn) [Compound 990, 2-amino-4-(8-chloro-10-fluoro-2-(((2R,7aS)-2-fluorotetrahydro-1H-pyrrolizin-7a(5H)-yl)methoxy)-4-(5-azaspiro[2.3]hexan-1-yl)-5,6-dihydro-4H-[1,4]oxazepino[5,6,7-de]quinazolin-9-yl)-7-fluorobenzo[b]thiophene-3-carbonitrile]
